Data as given in publication PMC10122656, “Siglec-6 mediates the uptake of extracellular vesicles through a noncanonical glycolipid binding pocket” (Nature Communications, 2023).
“And” between values parts separate entries of the source, which are not always exact repeats. Identical values can stand only once.

Assays:
Assay in all cases: Cell assay (liposome/EV binding, flow cytometry)
Type in all cases: cell-based
Siglec-4 R118A CHO cells = target: T1, Siglec-4 R118A CHO cells (Homo sapiens, UniProt P20916, R118A); conditions: Sig-4 R118A†; † after treatment of cells with neuraminidase; 3 mol% ganglioside liposomes; replicates
T1 construct: expressed in transfected cells
T1 sequence (P20916 20-626 R118A): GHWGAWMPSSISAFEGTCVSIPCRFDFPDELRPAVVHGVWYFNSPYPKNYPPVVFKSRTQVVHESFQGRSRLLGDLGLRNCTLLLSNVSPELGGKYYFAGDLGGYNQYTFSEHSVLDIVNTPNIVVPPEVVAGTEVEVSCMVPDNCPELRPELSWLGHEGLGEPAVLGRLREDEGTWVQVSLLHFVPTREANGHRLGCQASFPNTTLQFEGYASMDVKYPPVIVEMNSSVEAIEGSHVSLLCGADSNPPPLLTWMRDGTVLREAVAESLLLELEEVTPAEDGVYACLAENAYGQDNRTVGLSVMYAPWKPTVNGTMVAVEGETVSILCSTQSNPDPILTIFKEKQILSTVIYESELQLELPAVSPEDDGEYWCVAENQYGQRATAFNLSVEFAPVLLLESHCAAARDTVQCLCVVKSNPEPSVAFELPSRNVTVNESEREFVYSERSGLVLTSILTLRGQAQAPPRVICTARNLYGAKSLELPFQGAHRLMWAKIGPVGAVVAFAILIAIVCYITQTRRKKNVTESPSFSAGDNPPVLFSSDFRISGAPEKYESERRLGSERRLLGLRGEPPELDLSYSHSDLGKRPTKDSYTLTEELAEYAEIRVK
Description: (§1) Stock lipids (DSPC, Cholesterol, PEG45–DSPE) solutions were prepared by solvating the lipids in chloroform. An appropriate volume of each lipid solution was transferred to a glass test tube to reach the desired mol% of the component. The chloroform was then removed under N2 gas to yield a lipid thin film. Once dry, 100 µL of DMSO was added to the lipid-containing test tube and then the functional lipids (ganglioside, AF647–PEG45–DSPE, Siglec ligand–PEG45–DSPE, pHrodo–PEG45–DSPE, NGL) was added from their respect DMSO stock solution. The lipid mixture was then stored at −80 °C until completely frozen at which point excess DMSO was removed via lyophilization. Dry lipids were then stored at −80 °C until they were extruded. Lipid suppliers can be found in Supplementary Table 4.
(§2) Dry lipids were then hydrated in 1 mL of PBS. The lipids were then sonicated in a bath sonicator in a cycle of 1 min on, 5 min off for a total of five cycles. Liposomes were then extruded using an Avanti mini extruder first using an 800 nm filter and then a 100 nm filter yielding liposomes that were 130 ± 35 nm (Supplementary Table 5) measured using a Malvern Panalytical Zetasizer Nano S. Liposomes were stored at 4 °C.
(§3) 200,000 cells/well were plated into a 96-well U-bottom microplate and centrifuged at 300 × g for 5 min. The cells were then resuspended in 50 µL of 50 µM liposome/50 µg/mL (protein concentration) of EV solution in DMEM F12 5% FBS and incubated at 37 °C for 30 min. Excess liposomes were then removed via centrifuged at 300 × g for 5 min followed by washing the cells with FACS solution. The cells were then resuspended in (1:250 V/V) anti-Siglec-flow buffer (1% V/V FBS, 500 µM, EDTA Hank’s Balanced Salt Solution pH 7.4), solution and left to rest on ice for 30 min. The cells were then centrifuged again at 300 × g for 5 min and the cells were resuspended in FACS buffer solution and were then ready for analysis by flow cytometry. Information regarding antibody clone, catalog number supplier, label isotype, and dilution can be found in Supplementary Table 6. The Siglec-positive cells were gated on for liposome-binding analysis (Supplementary Fig. 1b).
(§4) Flow cytometry measurements were collected on a 5-laser Fortessa X-20 (BD Bioscience). All the resulting data were analyzed using FlowJo (10.5.3) software (BD Biosciences).
(§5) Cells were harvested and resuspended in complete media with either Neuraminidase A or S. The cells were then placed in a 37 °C shaking incubator for 1 h. The cells were then washed with complete media and then the liposome binding assay was performed as described above.

Siglec-5 R119A CHO cells = target: T2, Siglec-5 R119A CHO cells (Homo sapiens, UniProt O15389, R119A); conditions: Sig-5 R119A†; † after treatment of cells with neuraminidase; 3 mol% ganglioside liposomes; replicates
T2 construct: expressed in transfected cells
T2 sequence (O15389 17-551 R119A): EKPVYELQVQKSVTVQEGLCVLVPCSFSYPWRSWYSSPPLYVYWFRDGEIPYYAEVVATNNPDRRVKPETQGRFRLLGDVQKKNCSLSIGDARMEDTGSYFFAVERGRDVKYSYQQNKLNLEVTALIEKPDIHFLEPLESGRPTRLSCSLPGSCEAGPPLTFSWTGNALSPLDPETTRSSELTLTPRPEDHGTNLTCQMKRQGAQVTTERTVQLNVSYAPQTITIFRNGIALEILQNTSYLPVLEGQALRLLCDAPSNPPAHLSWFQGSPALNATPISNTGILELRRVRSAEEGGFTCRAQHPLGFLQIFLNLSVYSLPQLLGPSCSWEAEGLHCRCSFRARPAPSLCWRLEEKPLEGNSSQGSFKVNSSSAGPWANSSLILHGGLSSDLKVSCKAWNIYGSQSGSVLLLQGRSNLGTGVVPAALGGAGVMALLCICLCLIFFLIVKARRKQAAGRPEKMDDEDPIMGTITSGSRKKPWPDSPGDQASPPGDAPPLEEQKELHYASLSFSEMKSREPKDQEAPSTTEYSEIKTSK
Description: as §1, §2, §3, §4, §5

Siglec-7 R124A CHO cells = target: T3, Siglec-7 R124A CHO cells (Homo sapiens, UniProt Q9Y286, R124A); conditions: Sig-7 R124A†; † after treatment of cells with neuraminidase; 3 mol% ganglioside liposomes; replicates
T3 construct: expressed in transfected cells
Description: as §1, §2, §3, §4, §5

Siglec-7 WT CHO cells = target: T4, Siglec-7 WT CHO cells (Homo sapiens, UniProt Q9Y286); conditions: for log10(MFI AF647) of GLL relative to log10(MFI AF647) of the same GLL against UT CHO cells (Fig. 2a): Sig-7 WT†, † after treatment of cells with neuraminidase, 3 mol% ganglioside liposomes, replicates
T4 construct: expressed in transfected cells
Description: as §1, §2, §3, §4, §5

Siglec-9 R120A CHO cells = target: T5, Siglec-9 R120A CHO cells (Homo sapiens, UniProt Q9Y336, R120A); conditions: Sig-9 R120A†; † after treatment of cells with neuraminidase; 3 mol% ganglioside liposomes; replicates
T5 construct: expressed in transfected cells
Description: as §1, §2, §3, §4, §5

Siglec-9 WT CHO cells = target: T6, Siglec-9 WT CHO cells (Homo sapiens, UniProt Q9Y336); conditions: for log10(MFI AF647) of GLL relative to log10(MFI AF647) of the same GLL against UT CHO cells (Fig. 2a): Sig-9 WT†, † after treatment of cells with neuraminidase, 3 mol% ganglioside liposomes, replicates
T6 construct: expressed in transfected cells
Description: as §1, §2, §3, §4, §5

T6 sequence (Q9Y336 18-463): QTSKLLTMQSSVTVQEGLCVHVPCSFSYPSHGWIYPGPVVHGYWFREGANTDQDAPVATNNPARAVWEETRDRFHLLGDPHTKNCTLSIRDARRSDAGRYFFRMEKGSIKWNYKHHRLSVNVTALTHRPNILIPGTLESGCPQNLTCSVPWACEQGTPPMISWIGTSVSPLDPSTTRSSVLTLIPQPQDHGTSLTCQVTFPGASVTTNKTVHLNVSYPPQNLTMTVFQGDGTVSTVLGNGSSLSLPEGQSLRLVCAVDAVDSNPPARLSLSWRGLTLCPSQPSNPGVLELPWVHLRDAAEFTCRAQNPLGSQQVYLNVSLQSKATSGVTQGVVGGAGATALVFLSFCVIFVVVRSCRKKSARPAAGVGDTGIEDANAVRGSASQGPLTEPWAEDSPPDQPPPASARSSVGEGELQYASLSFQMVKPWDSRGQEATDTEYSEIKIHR
T4 sequence (Q9Y286 19-467): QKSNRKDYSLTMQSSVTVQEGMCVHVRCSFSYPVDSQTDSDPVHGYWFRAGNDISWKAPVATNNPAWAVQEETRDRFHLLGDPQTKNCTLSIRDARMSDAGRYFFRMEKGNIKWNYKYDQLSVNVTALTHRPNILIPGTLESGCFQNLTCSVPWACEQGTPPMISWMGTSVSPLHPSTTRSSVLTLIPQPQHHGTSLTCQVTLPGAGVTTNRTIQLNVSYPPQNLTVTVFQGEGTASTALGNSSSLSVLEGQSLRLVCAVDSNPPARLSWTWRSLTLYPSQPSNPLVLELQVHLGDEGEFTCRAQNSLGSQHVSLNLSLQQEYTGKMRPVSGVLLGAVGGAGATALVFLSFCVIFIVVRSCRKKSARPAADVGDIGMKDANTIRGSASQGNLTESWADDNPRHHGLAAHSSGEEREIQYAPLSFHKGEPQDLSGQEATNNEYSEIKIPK
T3 sequence (Q9Y286 19-467 R124A): as the sequence (Q9Y286 19-467) above, with R106A counted along it
T5 sequence (Q9Y336 18-463 R120A): as the sequence (Q9Y336 18-463) above, with R103A counted along it

Substance | log10(MFI AF647) of GLL relative to log10(MFI AF647) of the same GLL against UT CHO cells (Fig. 2a) (Siglec-4 R118A CHO cells) | log10(MFI AF647) of GLL relative to log10(MFI AF647) of the same GLL against UT CHO cells (Fig. 2a) (Siglec-5 R119A CHO cells) | log10(MFI AF647) of GLL relative to log10(MFI AF647) of the same GLL against UT CHO cells (Fig. 2a) (Siglec-7 R124A CHO cells) | log10(MFI AF647) of GLL relative to log10(MFI AF647) of the same GLL against UT CHO cells (Fig. 2a) (Siglec-7 WT CHO cells) | log10(MFI AF647) of GLL relative to log10(MFI AF647) of the same GLL against UT CHO cells (Fig. 2a) (Siglec-9 R120A CHO cells) | log10(MFI AF647) of GLL relative to log10(MFI AF647) of the same GLL against UT CHO cells (Fig. 2a) (Siglec-9 WT CHO cells) | GLL binding to Siglec-7 with increasing ganglioside content (in words) (Siglec-7 WT CHO cells; ganglioside titrated in GLLs, cells treated with neuraminidase S) | GLL binding to Siglec-9 (in words) (Siglec-9 WT CHO cells; cell assay, optimized liposomal formulation)
GD1b | 0.08 and 0.05 and 0.02 and 0.03 | 0.17 and -0.03 and -0.02 and 0.04 | -0.23 (2×) and -0.27 | 0 and -0.03 and -0.01 | 0.12 (2×) and 0.14 (2×) | 0.27 (2×) and 0.29 | – | –
GM1 | -0.3 and -0.31 (2×) and -0.32 | -0.32 and -0.33 and -0.29 and -0.28 | -0.08 and -0.05 and -0.01 | -0.1 and -0.11 and -0.08 | 0.14 and 0.1 (2×) and 0.16 | 0.3 and 0.31 (2×) | – | –
GD3 | -0.13 and -0.1 and -0.07 and -0.14 | -0.21 (2×) and -0.15 (2×) | -0.08 and -0.02 and -0.1 | 1.01 and 0.98 and 1.03 | 0.21 and 0.15 (2×) and 0.19 | 0.22 and 0.21 and 0.23 | decreased above an optimal ganglioside content | –
GM3 | -0.24 and -0.19 (2×) and -0.2 | -0.22 (2×) and -0.21 and -0.24 | -0.45 and -0.31 and -0.25 | -0.16 and -0.14 and -0.13 | -0.21 and -0.17 and -0.15 and -0.13 | -0.03 and -0.01 (2×) | – | –
GM2 | 0 and -0.04 and -0.02 and -0.03 | -0.1 and -0.09 (2×) and -0.11 | -0.25 and -0.22 and -0.35 | -0.02 and 0 (2×) | 0.15 and 0.16 and 0.17 (2×) | 0.28 and 0.29 and 0.26 | – | novel interactions were observed
GM4 | -0.12 (2×) and -0.1 and -0.07 | -0.2 (3×) and -0.21 | -0.35 and -0.25 and -0.4 | -0.07 and -0.06 and -0.04 | 0.05 and 0.07 and 0.08 (2×) | 0.19 (2×) and 0.21 | – | –
GQ1b | -0.12 and -0.13 (2×) and -0.1 | -0.2 and -0.19 and -0.12 and -0.08 | 0.01 and -0.05 and -0.03 | 1.41 and 1.39 and 1.38 | 0.15 and 0.12 and 0.13 and 0.1 | 0.2 and 0.23 and 0.25 | – | –
GD1a | 0 (2×) and 0.02 and 0.01 | -0.25 and -0.02 and -0.03 and 0.01 | -0.2 and -0.15 and -0.24 | 0.05 and 0.02 and 0.03 | 0.17 and 0.16 (3×) | 0.29 (2×) and 0.32 | – | –
GT1b | 0.12 and 0.1 and 0.13 and 0.14 | -0.05 and -0.03 and 0.02 and 0.1 | -0.17 and -0.19 and -0.09 | 0.54 and 0.42 and 0.56 | 0.16 (2×) and 0.11 and 0.15 | 0.55 and 0.46 and 0.54 | – | –
